Test results published in patent US11844800B2, “Methods and compositions for predicting and preventing relapse of acute lymphoblastic leukemia” (Massachusetts Institute of Technology, priority 2019, dated 2023).

Assays:
[1] = tested on: BCR-ABL mutant B-cell ALL; assay type: in vivo, mice; settings: 13 models, n=88 animals
[2] = tested on: B-cell ALL leukemic cells in bone marrow; assay: Bone marrow involvement at MRD in B-cell ALL PDX mice after mono- or combination therapy; assay type: in vivo; settings: treated for 28 days
Experimental: Mice are treated with ponatinib alone, ponatinib in combination with QNZ (a TNF-alpha inhibitor), ponatinib in combination with fostamatinib (a proximal pre-BCR pathway inhibitor), ponatinib in combination with ibrutinib (a proximal pre-BCR pathway inhibitor), ponatinib in combination with duvelisib (a distal pre-BCR inhibitor), or ponatinib in combination with losmapimod (a p38 MAPK inhibitor) for 28 days. Bone marrow aspirates are obtained, and leukemic cells are isolated using conventional Ficoll centrifugation and FACS sorting methods. The leukemic cells are counted as bone marrow involvement at MRD, and it is compared to that before treatment.

O=C(Nc1ccc(OC(F)(F)Cl)cc1)c1cnc(N2CC[C@@H](O)C2)c(-c2cc[nH]n2)c1 [ABL001, asciminib]
Event free survival (remission/relapse, in words) [1]: significant earlier relapse

Cc1ccc(C(=O)Nc2ccc(CN3CCN(C)CC3)c(C(F)(F)F)c2)cc1C#Cc1cnc2cccnn12 [ponatinib]
bone marrow involvement at MRD [2]: 8%
